Legend:
[1] = target: T1, CYP2C9 (Homo sapiens, UniProt P11712); experiment: Human liver microsome CYP inhibition assay, CYP2C9; format: in vitro ADME; details: role: inhibitor; human liver microsomes, probe substrate; read-out: CYP2C9 half maximal inhibitory concentration IC50
T1 construct: Mixed human liver microsomes (HLM) were purchased from Corning Inc; tissue Corning Inc; host or cells: mixed human liver microsomes (HLM)
Description: (§1) Experimental objective: To evaluate the inhibitory activity of the test substance on human liver microsomal cytochrome P450 isoenzymes (CYP1A2, CYP2C9, CYP2C19, CYP2D6, CYP3A4) using a 5-in-1 probe substrate for CYP isoenzymes.
(§2) Mixed human liver microsomes (HLM) were purchased from Corning Inc. (Steuben, New York, USA) and stored at temperatures below −70° C. prior to use.
(§3) The working solution of the test substance, which had been diluted to a series of concentrations, was added to an incubation system containing human liver microsomes, probe substrates, and auxiliary factors of the circulatory system. A control containing solvent but no test substance served as an enzyme activity control (100%). The concentration of metabolites produced from probe substrates in the samples was determined using Liquid Chromatography-Tandem Mass Spectrometry (LC-MS/MS) method. Non-linear regression analysis of the average percentage activity of the test substance against its concentration was conducted using SigmaPlot (V.11). The IC50 values were calculated using a three-parameter or four-parameter inverse log equation.

[2] = target: T2, CYP3A4 (Homo sapiens, UniProt P08684); experiment: Human liver microsome CYP inhibition assay, CYP3A4; format: in vitro ADME; details: role: inhibitor; human liver microsomes, probe substrate; read-out: CYP3A4 half maximal inhibitory concentration IC50
T2 construct: Mixed human liver microsomes (HLM) were purchased from Corning Inc; tissue Corning Inc; host or cells: mixed human liver microsomes (HLM)
Description: as §1, §2, §3

[3] = Plasma protein binding rate test, SD rat (equilibrium dialysis); format: in vitro ADME; details: 37° C., read-out: Plasma protein binding rate (%) in SD rats (converted)
From the text: (§4) The sample was thoroughly mixed.

[4] = In vitro liver microsome metabolic stability study; format: in vitro ADME; details: human liver microsomes 0.5 mg/mL, compound 1 μM, 37° C., up to 60 minutes; read-out: Intrinsic hepatic clearance CLint(liver)
Description: Stock solution: 10 mM in DMSO.
Only 54 μL of microsomal working solution, 6 μL of NADPH regeneration system working solution, and 180 μL of stop solution were added to the blank plate.
LC-MS/MS analysis was performed.

[5] = target: T3, CYP2D6 (Homo sapiens, UniProt P10635); experiment: Human liver microsome CYP inhibition assay, CYP2D6; format: in vitro ADME; details: role: inhibitor; human liver microsomes, probe substrate; read-out: CYP2D6 half maximal inhibitory concentration IC50
T3 construct: Mixed human liver microsomes (HLM) were purchased from Corning Inc; tissue Corning Inc; host or cells: mixed human liver microsomes (HLM)
Description: as §1, §2, §3

[6] = Permeability test in MDR1-MDCKII monolayer cell model; format: in vitro ADME; details: dog
Description: Experimental objective: The permeability and efflux ratio of the compound of the present disclosure were determined using the MDR1-MDCKII monolayer cell model to assess its membrane permeability and potential for P-gp-mediated efflux transport.
Experimental protocol: MDR1-MDCKII cells (obtained from the Netherlands Cancer Institute) were seeded in 96-well plates (obtained from Corning) at a cell density of 3.33×10^5 cells/mL and cultured for 4 to 7 days to form confluent cell monolayers. Hank's balanced salt solution containing 10 mM HEPES (pH 7.40) was used as the transport buffer. The test compound was evaluated for bidirectional transport at a concentration of 2 μM, with the DMSO concentration in the incubation system maintained below 1%. After adding the samples, the cell plate was incubated at 37±1° C., 5% CO2, and saturated humidity for 2.5 hours. All samples were quantitatively analyzed using the LC-MS/MS method. The apparent permeability coefficient (Papp, cm/s) and efflux ratio (ER) were calculated using the following formula. Apparent permeability coefficient (Papp, cm/s) was calculated using the following formula: Papp=(dCr/dt)×Vr/(A×C0). Herein, dCr/dt represents the cumulative concentration of the compound at the receiving end per unit time (μM/s); Vr is the volume of the solution at the receiving end (with solution volumes at the apical and basolateral ends being 0.075 mL and 0.250 mL, respectively); A is the relative surface area of the cell monolayer (0.143 cm^2); C0 is the initial concentration of the test substance at the dosing end (μM) or the peak area ratio of the reference substance. The efflux ratio was calculated using the following formula: ER=Papp(BA)/Papp(AB).

[7] = Plasma protein binding rate test, cynomolgus monkey (equilibrium dialysis); format: in vitro ADME; details: 37° C., read-out: Plasma protein binding rate (%) in cynomolgus monkeys (converted)
From the text: as §4

[8] = target: T4, CYP2C19 (Homo sapiens, UniProt P33261); experiment: Human liver microsome CYP inhibition assay, CYP2C19; format: in vitro ADME; details: role: inhibitor; human liver microsomes, probe substrate; read-out: CYP2C19 half maximal inhibitory concentration IC50
T4 construct: Mixed human liver microsomes (HLM) were purchased from Corning Inc; tissue Corning Inc; host or cells: mixed human liver microsomes (HLM)
Description: as §1, §2, §3

[9] = Plasma protein binding rate test, human (equilibrium dialysis); format: in vitro ADME; details: 37° C.
From the text: as §4

[10] = target: T5, CYP1A2 (Homo sapiens, UniProt P05177); experiment: Human liver microsome CYP inhibition assay, CYP1A2; format: in vitro ADME; details: role: inhibitor; human liver microsomes, probe substrate; read-out: CYP1A2 half maximal inhibitory concentration IC50
T5 construct: Mixed human liver microsomes (HLM) were purchased from Corning Inc; tissue Corning Inc; host or cells: mixed human liver microsomes (HLM)
T5 sequence (P05177 1-516): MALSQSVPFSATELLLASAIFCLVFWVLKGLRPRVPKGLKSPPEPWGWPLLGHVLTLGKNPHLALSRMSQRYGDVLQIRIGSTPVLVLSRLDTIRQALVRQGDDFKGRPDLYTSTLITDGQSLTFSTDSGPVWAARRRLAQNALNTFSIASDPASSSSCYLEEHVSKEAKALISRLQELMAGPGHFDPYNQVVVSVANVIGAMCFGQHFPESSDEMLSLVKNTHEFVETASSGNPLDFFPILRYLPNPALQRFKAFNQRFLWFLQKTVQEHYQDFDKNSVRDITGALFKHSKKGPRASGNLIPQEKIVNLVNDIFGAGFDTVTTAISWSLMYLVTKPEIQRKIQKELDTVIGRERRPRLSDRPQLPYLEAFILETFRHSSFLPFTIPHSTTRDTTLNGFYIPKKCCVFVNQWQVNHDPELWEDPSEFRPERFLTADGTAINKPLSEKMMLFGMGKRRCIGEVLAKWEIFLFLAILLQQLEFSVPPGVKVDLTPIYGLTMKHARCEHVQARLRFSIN
Description: as §1, §2, §3

[11] = target: T6, human CYP11B2 (Homo sapiens, UniProt P19099); experiment: In vitro activity assay of monoclonal cells overexpressing human CYP11B2; format: cell-based; details: G402 cells overexpressing human CYP11B2; substrate 11-deoxycorticosterone; 16 hours; aldosterone by LCMS/MS
T6 construct: expressed in transfected cells; host or cells: human renal leiomyoma G402 cell line (monoclonal cells overexpressing human CYP11B2)
T6 sequence (P19099 25-503): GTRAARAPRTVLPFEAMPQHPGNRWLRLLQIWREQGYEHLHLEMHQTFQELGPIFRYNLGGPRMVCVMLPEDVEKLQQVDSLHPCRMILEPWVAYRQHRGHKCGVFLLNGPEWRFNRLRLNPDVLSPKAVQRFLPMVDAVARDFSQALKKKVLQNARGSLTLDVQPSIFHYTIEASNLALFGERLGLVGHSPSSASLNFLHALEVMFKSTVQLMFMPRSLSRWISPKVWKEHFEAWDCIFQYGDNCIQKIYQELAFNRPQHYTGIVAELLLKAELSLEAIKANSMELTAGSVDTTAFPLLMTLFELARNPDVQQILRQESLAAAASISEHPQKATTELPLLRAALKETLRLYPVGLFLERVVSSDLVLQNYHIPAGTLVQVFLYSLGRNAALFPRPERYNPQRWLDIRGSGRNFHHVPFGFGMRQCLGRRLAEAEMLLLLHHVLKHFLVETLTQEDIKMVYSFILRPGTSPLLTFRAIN
Description: The human renal leiomyoma G402 cell line overexpressing human CYP11B2 was selected to serve as a compound activity screening system.
• 2) Compound details: The test compound was prepared as a 10 μM working concentration using DMSO.
Day 1: Cells were digested, and human renal leiomyoma G402 cells overexpressing human CYP11B2 were resuspended to 1×10^5 cells/mL, with 100 μL seeded into a 96-well plate.
Day 2: The medium was replaced with DMEM/F12 containing 2.5% charcoal-stripped fetal bovine serum; test compounds were added: 5 μL of test compound was added to the cell culture medium to achieve final concentrations of 10000, 2500, 625, 156.25, 39.06, 9.77, 2.44, 0.61, 0.15, and 0 nM (with a DMSO content of 0.1%).
After one hour, the substrate was added: 30 mM 11-deoxycorticosterone was diluted 1500-fold with culture medium, and 5 μL was dispensed per well to achieve a final concentration of […], followed by incubation for 16 hours.
(§5) Day 3: The cell supernatant was collected and added to 200 μL of a methanol solution containing internal standards (internal standards: 35 ng/mL ketoprofen or 7.5 ng/mL carbamazepine or 5 ng/mL diphenhydramine or 10 ng/mL tolbutamide). The mixture was vortexed and centrifuged (4000×g, 4° C., 5 minutes). Then, 100 μL of the supernatant was taken and mixed with 100 μL of pure water. The mixture was centrifuged (4000 g, 4° C., 15 min), and the supernatant was analyzed by ESI-LCMS/MS. • 4) Data analysis:
Ratio=Aldosterone peak area/Internal standard peak area
Control activity %=(Ratio test compound/Ratio DMSO)×100%
“Ratio test compound” represents the Ratio values at different concentrations of the test compound.
“Ratio DMSO” represents the Ratio value without the addition of the test compound. • X=Log (compound concentration) • Y=Control activity %
(§6) The IC50 of the test compound was determined by fitting to a nonlinear regression equation using XLfit 5.5.0.

[12] = target: T7, human CYP11B1 (Homo sapiens, UniProt P15538); experiment: In vitro activity assay of monoclonal cells overexpressing human CYP11B1; format: cell-based; details: G402 cells overexpressing human CYP11B1; substrate 11-deoxycortisol 1 μM; 16 hours
T7 construct: expressed in transfected cells; host or cells: human renal leiomyoma G402 cell line (monoclonal cells overexpressing human CYP11B1)
T7 sequence (P15538 25-503): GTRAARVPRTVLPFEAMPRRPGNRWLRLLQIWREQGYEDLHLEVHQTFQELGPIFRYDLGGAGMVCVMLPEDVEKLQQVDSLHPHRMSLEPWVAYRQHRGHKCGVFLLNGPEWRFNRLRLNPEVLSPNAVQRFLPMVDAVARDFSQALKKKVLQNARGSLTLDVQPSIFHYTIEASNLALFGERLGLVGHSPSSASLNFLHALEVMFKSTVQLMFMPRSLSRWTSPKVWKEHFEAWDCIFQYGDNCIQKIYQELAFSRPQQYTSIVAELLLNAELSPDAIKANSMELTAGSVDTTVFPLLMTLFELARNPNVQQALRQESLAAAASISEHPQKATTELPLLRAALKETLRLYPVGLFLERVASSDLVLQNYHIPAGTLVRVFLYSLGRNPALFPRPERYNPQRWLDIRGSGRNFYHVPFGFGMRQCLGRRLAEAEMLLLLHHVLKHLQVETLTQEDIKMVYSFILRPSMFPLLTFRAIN
Description: The human renal leiomyoma G402 cell line overexpressing human CYP11B1 was selected to serve as a compound selectivity screening system. Details are as follows: • 1) The cells, reagents, and instrument information were consistent with Experimental Example 1 (activity of monoclonal cells overexpressing human CYP11B2). • 2) Compound details: The test compound was prepared as a […] working concentration using DMSO. • 3) Experimental procedure
Day 1: Cells were digested, and human renal leiomyoma G402 cells overexpressing CYP11B1 were resuspended to 1×10^5 cells/mL, with […] seeded into a 96-well plate.
Day 2: The medium was replaced with DMEM/F12 containing 2.5% charcoal-stripped fetal bovine serum.
After one hour, the substrate was added: 30 mM 11-deoxycortisol was diluted 1500-fold with culture medium, and 5 μL was dispensed per well to achieve a final concentration of 1 μM, followed by incubation for 16 hours.
as §5, with “The mixture was vortexed and centrifuged (4000×g, 4° C., 5 minutes). Then, 100 μL of the supernatant was taken and mixed with 100 μL of pure water.” left out, “analysis: […]” for “analysis:”
as §6

T2 sequence (P08684 whole entry): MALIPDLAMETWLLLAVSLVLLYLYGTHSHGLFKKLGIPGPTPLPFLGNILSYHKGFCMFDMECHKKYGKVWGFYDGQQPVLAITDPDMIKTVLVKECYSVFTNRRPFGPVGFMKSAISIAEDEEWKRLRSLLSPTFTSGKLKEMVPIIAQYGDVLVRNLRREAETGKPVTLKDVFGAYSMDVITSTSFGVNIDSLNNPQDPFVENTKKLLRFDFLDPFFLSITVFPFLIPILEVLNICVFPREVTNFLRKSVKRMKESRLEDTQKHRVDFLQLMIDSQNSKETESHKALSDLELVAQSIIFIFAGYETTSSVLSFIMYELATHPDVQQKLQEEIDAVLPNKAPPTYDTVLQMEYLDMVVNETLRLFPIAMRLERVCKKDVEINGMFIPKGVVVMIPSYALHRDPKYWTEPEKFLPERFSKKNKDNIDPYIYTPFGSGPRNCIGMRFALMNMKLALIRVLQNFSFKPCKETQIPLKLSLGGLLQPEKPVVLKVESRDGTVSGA
T3 sequence (P10635 whole entry): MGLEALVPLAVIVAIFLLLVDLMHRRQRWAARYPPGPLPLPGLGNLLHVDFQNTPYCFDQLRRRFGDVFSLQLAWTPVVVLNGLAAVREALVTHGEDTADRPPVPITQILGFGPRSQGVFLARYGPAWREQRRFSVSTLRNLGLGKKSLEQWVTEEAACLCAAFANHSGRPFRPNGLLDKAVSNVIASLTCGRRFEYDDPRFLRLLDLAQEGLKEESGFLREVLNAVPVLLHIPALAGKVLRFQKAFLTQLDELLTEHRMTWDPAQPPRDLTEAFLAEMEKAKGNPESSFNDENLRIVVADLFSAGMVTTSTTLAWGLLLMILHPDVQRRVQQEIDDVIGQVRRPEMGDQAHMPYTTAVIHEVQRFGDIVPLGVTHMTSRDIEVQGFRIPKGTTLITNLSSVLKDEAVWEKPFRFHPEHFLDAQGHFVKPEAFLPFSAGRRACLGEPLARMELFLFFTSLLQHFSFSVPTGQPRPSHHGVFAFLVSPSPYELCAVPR
T4 sequence (P33261 whole entry): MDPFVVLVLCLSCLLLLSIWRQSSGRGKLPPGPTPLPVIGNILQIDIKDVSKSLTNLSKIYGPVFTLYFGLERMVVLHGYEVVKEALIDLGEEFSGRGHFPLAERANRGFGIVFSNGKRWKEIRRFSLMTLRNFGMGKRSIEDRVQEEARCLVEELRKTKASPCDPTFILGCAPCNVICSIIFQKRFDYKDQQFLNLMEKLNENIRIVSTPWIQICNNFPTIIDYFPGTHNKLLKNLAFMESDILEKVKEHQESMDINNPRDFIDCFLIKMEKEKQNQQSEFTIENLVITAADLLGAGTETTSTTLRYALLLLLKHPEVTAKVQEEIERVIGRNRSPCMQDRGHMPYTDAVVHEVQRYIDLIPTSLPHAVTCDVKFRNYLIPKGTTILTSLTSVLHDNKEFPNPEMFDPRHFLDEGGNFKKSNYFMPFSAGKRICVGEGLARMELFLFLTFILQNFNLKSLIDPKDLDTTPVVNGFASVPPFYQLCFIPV
T1 sequence (P11712 whole entry): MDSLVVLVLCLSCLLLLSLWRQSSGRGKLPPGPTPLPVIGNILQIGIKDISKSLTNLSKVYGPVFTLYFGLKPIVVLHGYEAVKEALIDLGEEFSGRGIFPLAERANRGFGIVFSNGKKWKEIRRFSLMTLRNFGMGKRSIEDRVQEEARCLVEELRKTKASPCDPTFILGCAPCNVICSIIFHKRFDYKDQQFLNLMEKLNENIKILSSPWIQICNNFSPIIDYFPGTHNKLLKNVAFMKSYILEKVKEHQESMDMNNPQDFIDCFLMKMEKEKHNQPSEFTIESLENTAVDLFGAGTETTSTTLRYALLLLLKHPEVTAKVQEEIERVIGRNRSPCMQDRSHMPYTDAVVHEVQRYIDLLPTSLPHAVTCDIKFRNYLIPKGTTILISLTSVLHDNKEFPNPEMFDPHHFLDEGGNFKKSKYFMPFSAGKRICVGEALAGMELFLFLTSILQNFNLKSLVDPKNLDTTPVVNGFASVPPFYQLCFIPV

## CCC(=O)NC1CCCc2c(-c3ccc4c(c3)OCC(=O)N4C)cncc21 (single isomer, unassigned) [Compound 011]
[1]
  IC50: > 50 µM
[2]
  IC50: > 50 µM
[3]
  fraction unbound at 4 h: 0.139
[4]
  CLint scaled at 1 µM: < 8.6 mL/min/kg
[5]
  IC50: > 50 µM
[6]; MDCK-MDR1, pH 7.4, ER=Papp(BA)/Papp(AB)
  efflux ratio at 2.5 h, 2 µM: 0.89
[6]; MDCK-MDR1, pH 7.4, pH 7.40, 2.5 hours, 37±1° C., read-out: Apparent permeability coefficient (Papp (AB))
  Papp A→B at 2.5 h, 2 µM: 24.3 ×10⁻⁶ cm/s
[7]
  fraction unbound at 4 h: 0.245
[8]
  IC50: > 50 µM
[9]
  fraction unbound at 4 h: 0.245
[10]
  IC50: > 50 µM

## CCC(=O)N[C@@H]1CCCc2c(-c3cnc4c(ccc(=O)n4C)c3)cncc21 (single isomer, unassigned) [Compound 022]
[11]
  IC50: 0.0487 µM
[12]
  IC50: 6.89 µM

From patent US20260317314A1, “NITROGEN-CONTAINING HETEROCYCLIC COMPOUND AND USE THEREOF” (JIANGSU DEYUAN PHARMACEUTICAL CO.,LTD., priority 2023, published 2026)
